pKi: −log10 of the molar value. No end group written: not given here.
Tests used:
[1] = system: murine peritoneal macrophages; assay: Phagocytic activity of murine peritoneal macrophages (Saccharomyces cerevisiae); type: cell-based, BALB/c mice; details: 100 µg/mL, 24 h, then 1 h with Saccharomyces cerevisiae; duplicate; versus negative control
Procedure: Figure 5 Phagocytic activity of the murine peritoneal macrophages stimulated in vitro with TsHpt-I and -II. Peritoneal exudate macrophages from naïve BALB/c mice were cultured on glass coverslips for 24 h in culture medium or in the presence of LPS (5 μg/mL) or TsHpt-I and -II (100 μg/mL). After this period, the cells were incubated for 1 h with a suspension of Saccharomyces cerevisiae. Coverslips were washed, fixed and stained by Giemsa. (A) Phagocytosis images in 400× magnification. (B) The phagocytic index was calculated based on the percentage of phagocytic cells and on the average number of yeasts per cell, by counting approximately 200 cells per coverslip in 1000× magnification. The results represent one of two reproducible experiments performed in duplicate (mean ± SD). * p < 0.05.
Peritoneal macrophages from naïve BALB/c mice (n = 6) were obtained as described above (item 5.5.1). Cells were distributed in 24-well culture plates (5 × 10^5 cells/500 µL/well), with glass coverslips inside, and incubated for 2 h at 37 °C and 5% CO2. […] Phagocytosis was evaluated by immersion optical microscopy (1000×) and quantified by counting approximately 200 cells per cover slip. The percentage of phagocytic cells and the average number of internalized yeasts per phagocytic cell were calculated. […]

normotensive Wistar rats = details: by potentiating bradykinin; cited from earlier work
Description: Among the linear peptides we have the hypotensins (TsHpt), identified from TsV proteomic analyzes. Both peptides are made up of 25 amino acid residues that contain two consecutive prolines in their C-terminal portion and a punctual difference between TsHpt-I and -II, which is the residue at position 15, being a glutamine in TsHpt-I and a glutamic acid in TsHpt-II. […] The hypothesis is that the vasodilation effect is related to the releas ...

NEP = target: T1, NEP (Homo sapiens, UniProt P08473); assay: Characterization of NEP inhibition (Ki and mechanism, Lineweaver-Burk); type: biochemical
T1 construct: gift of Prof; Adriana Carmona, Department of Biophysics, UNIFESP-EPM
T1 sequence (P08473 2-750): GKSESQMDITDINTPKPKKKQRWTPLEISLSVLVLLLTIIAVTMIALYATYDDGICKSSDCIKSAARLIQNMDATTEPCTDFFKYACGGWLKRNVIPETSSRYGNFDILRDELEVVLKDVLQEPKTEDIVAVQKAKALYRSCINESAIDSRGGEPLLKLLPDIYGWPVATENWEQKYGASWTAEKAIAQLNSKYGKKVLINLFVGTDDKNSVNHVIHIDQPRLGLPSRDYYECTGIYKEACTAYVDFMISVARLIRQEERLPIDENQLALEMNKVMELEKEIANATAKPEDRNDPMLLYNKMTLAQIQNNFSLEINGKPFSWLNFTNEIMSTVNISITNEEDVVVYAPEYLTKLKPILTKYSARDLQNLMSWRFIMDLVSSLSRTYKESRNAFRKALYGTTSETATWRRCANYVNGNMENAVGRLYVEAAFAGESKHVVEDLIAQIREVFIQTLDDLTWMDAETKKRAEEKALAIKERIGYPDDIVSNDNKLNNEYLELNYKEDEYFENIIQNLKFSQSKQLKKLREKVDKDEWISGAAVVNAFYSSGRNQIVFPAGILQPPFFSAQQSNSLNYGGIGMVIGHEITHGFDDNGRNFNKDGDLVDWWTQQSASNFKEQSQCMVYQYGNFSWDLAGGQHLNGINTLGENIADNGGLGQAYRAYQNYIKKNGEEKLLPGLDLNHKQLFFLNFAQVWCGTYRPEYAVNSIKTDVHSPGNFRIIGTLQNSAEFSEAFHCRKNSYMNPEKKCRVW
Procedure: Figure 2 Lineweaver–Burk plot of NEP inhibition by TsHpt-I. The inhibition constant (Ki) was determined using four Abz-RGFK-EDDnp substrate concentrations (4 μM, 6 μM, 8 μM and 10 μM), with variation in the concentration of TsHpt-I (3 μM and 4 μM), keeping the amount of enzyme fixed (1.5 ng). The experiment was performed in triplicate.
To determine the inhibition constant (Ki) of TsHpt-I over NEP, four concentrations of Abz-RGFK (Dnp)-OH (4 µM, 6 µM, 8 µM and 10 µM) and 3 µM and 4 µM of TsHpt-I were tested using 1.5 ng of peptidase in 100 µL of final volume of Tris HCl pH 7.5. The Km value of the substrate used was determined to be 14 µM [27]. Controls without the TsHpt-I were also performed in all assays. The reactions were monitored as described above (item 5.2). The Lineweaver–Burk plot was constructed (1/V × 1/(S)) according to the presented mechanism. The Ki was calculated as described by Segel. All assays were performed in triplicate.

Row | Sequence | phagocytic index [1] | hypotensive activity (normotensive Wistar rats) | pKi (NEP) | mechanism of inhibition of NEP (NEP; Lineweaver-Burk plot, triplicate)
1 | AEIDFSGIPEDIIKEIKETNAKPPA [TsHpt-II] | significant increase in the phagocytic index | – | – | –
2 | AEIDFSGIPEDIIKQIKETNAKPPA [TsHpt-I] | significant increase in the phagocytic index | able to exert hypotensive activity | 5.36 | non-competitive inhibitor

— PMC8704389, “New Insights into the Hypotensins from Tityus serrulatus Venom: Pro-Inflammatory and Vasopeptidases Modulation Activities” (Toxins, 2021)
